# Results: patent US20240108740A1, “THERAPEUTIC COMPOSITIONS INCLUDING SPN10 AND USES THEREOF” (Stealth BioTherapeutics Inc., priority 2022, published 2024)
# Residues, ends and D or L forms follow the SMILES beside them.
# Tested on: Sprague Dawley rats
# Test: Example 45: hypermetabolism after burn injury (indirect calorimetry)
# Type: in vivo, rat
# Details: 30% total body surface area burn; IV every 12 hours for three days
# Procedure: Sprague Dawley rats will be randomized into the following groups; sham-burn (SB), burn with saline treatment (B), burn with peptide conjugate-treatment (BP), burn with aromatic-cationic peptides (BP2), burn with SPN10(s) (BP3), burn with SPN10(s)+aromatic-cationic peptides (BP4). Catheters will be surgically placed into jugular vein and carotid artery. Band BP, BP2, BP3 and BP4 animals will receive 30% total body surface area full thickness burns by immersing the dorsal part into 100° C. water for 12 seconds with immediate fluid resuscitation. […] The EE of the animals will be monitored for 12 hours in a TSE Indirect Calorimetry System (TSE Co., Germany).
smiles,measurement,value
"N=C(N)NCCC[C@H](NC(=O)[C@@H](N)Cc1c[nH]c2ccccc12)C(=O)N[C@@H](Cc1c[nH]c2ccccc12)C(=O)N[C@@H](CCCCN)C(N)=O [SPN10, H-L-Trp-L-Arg-L-Trp-L-Lys-NH2] (H-WRWK-NH2)",increase in energy expenditure (EE) after burn,attenuate or prevent this effect
